Test results taken from patent publication EP1285918A1, “C7 Ester substituted taxanes as antitumor agents” (Florida State University Research Foundation, Inc., priority 2001, dated 2003).
Like-named read-outs stand apart in the source and are kept apart here.

Legend:
HCT116 = test: In Vitro cytotoxicity measured by the cell colony formation assay; format: cell-based; conditions: Homo sapiens, HCT-116; 72 h drug incubation, colonies counted after 7 days; concentration producing 50% inhibition of colony formation; read-out: IN VITRO ID 50 (nm) HCT116
[1] = tested on: SKMES human lung cancer xenograft
Method: Female Nu/Nu mice (6-8 weeks of age; implanted with 1 mm^3 SKMES lung carcinoma fragments in the flank) were sorted into treatment groups of six mice each. […] Treatment was administered as a single bolus on Day 1, and the study was terminated on Day 62.
(§1) The mean days of survival is the number of days after which a SKMES neoplasm reached a size of 2.0 g and the animal was euthanized. A complete response is obtained if the tumor is not palpable at the end of the study. A partial response is obtained if the tumor shrinks to a size smaller than its size on Day 1 of the study.

[2] = tested on: MX-1 Human Breast Carcinoma Xenograft; conditions: for MDS (n): days until tumor reached 1.5 g
Method: The antitumor compounds were prepared in the following vehicle: 5% ethanol, 5% Cremophor and 90% isotonic saline.
Female Nu/Nu mice (12-13 weeks of age; implanted with 1 mm^3 MX-1 human breast carcinoma fragments in the flank) were sorted into treatment groups of six mice each (MX-1 tumor size ranges and group mean MX-1 tumor size ranges were 56-138 mg and 68-74 mg, respectively). […] All treatments were administered as a single oral bolus on Day 1, and the study was terminated on Day 60.
as §1, with “an MX-1” for “a SKMES”, “1.5” for “2.0”

[3] = tested on: A375 Human Melanoma Xenograft
Method: Female nu/nu mice (6-8 weeks of age; implanted subcutaneously with 1 mm^3 A375 melanoma fragments in the flank) were sorted into one control and four treatment groups of ten mice each (group mean tumor size of 96-98 mg). […] The study was terminated on Day 60.
as §1, with “a” for “a SKMES”

[4] = tested on: HCT116 Human Colon Carcinoma Xenograft; conditions: for Mean Score: tumor score 1 to 10, group mean
[5] = 40 mg/kg single oral bolus Day 1, 6 mice/group, study end Day 62
[6] = 28 mg/kg single oral bolus Day 1, 6 mice/group, study end Day 60
[7] = 40 mg/kg single oral bolus Day 1, 6 mice/group, study end Day 60
[8] = 40 mg/kg single oral bolus, 10 mice/group, study end Day 60
[9] = HCT116, Taxol i.p. 18 mg/kg qd x 5
[10] = HCT116, Taxol i.p. 18 mg/kg qd x 5, 5 mice, Day 60
[11] = HCT116, i.v. Day 1 (Taxol 36 mg/kg split dose, 1393 73 mg/kg single dose), 5 mice/group, Day 60

`CC(=O)O[C@H]1C(=O)[C@@]2(C)[C@H]([C@H](OC(=O)c3ccccc3)[C@]3(O)C[C@H](OC(=O)[C@H](O)[C@@H](NC(=O)c4ccccc4)c4ccccc4)C(C)=C1C3(C)C)[C@]1(OC(C)=O)CO[C@@H]1C[C@@H]2O` [Taxol, paclitaxel, reference compound] was tested, and the IC50 (HCT116) was 2.1 nM, the “% Total Response” value [1, 5] was 0% and the “Complete Responses” value [1, 5] was 0. The “Partial Responses” value [1, 5] was 0, the “Stable Disease” value [1, 5] was 0 and the Survivors [1, 5] was 0. The “Toxic Deaths” value [1, 5] was 1, the “MDS (n)” value ([1]; 40 mg/kg single oral bolus Day 1, 6 mice/group, study end Day 62, days until tumor reached 2.0 g) was 9.2±1.4 (5) days and the activity ([1]; SKMES, Taxol orally 40 mg/kg single bolus (Group 10)) was “not active”. For the same compound, the “Complete Responses” value [2, 6] was 0, the “Partial Responses” value [2, 6] was 0 and the “Stable Disease” value [2, 6] was 1. The Survivors [2, 6] was 1, the “Toxic Deaths” value [2, 6] was 0 and the “MDS (n)” value [2, 6] was 23.1 ± 1.7 (5) days. The “Complete Responses” value [2, 7] was 0, the “Partial Responses” value [2, 7] was 1 and the “Stable Disease” value [2, 7] was 0. For the same compound, the Survivors [2, 7] was 1, the “Toxic Deaths” value [2, 7] was 0 and the “MDS (n)” value [2, 7] was 23.2 ± 1.3 (5) days. For the same compound, the Stable Disease ([2]; MX-1, single oral bolus, Taxol 40 and 28 mg/kg groups together, Day 60) was “one”, the Partial Response ([2]; MX-1, single oral bolus, Taxol 40 and 28 mg/kg groups together, Taxotere 100 and 70 mg/kg groups together, Day 60) was “One” and the “Complete Response” value [3, 8] was 0. The “Partial Response” value [3, 8] was 1, the “Stable Disease” value [3, 8] was 1 and the Survivors [3, 8] was 2. The “Toxic Deaths” value [3, 8] was 0, the “MDS (n)” value ([3]; 40 mg/kg single oral bolus, 10 mice/group, study end Day 60, days until tumor reached 2.0 g) was 23.7 ± 3.0 (8) days and the activity ([3]; A375, paclitaxel 40 mg/kg single oral bolus (Group 2)) was “not active”. The “increase in survival compared to control Group 1” value ([4]; HCT116, Taxol 36 mg/kg i.v. qd x 1) was 24%, the “survival extension compared to Group 1 control mice” value [4, 9] was 84% and the “Complete Response” value [4, 10] was 0. For the same compound, the “Stable Disease” value [4, 10] was 0, the Survivors [4, 10] was 1 and the “Toxic Deaths” value [4, 10] was 0. For the same compound, the “Mean Score” value [4, 9] was 3.6 ± 1.4, the “MDS (n)” value ([4]; HCT116, i.v. Day 1 (Taxol 36 mg/kg split dose, 1393 73 mg/kg single dose), 5 mice/group, 2.0 g cut-off, Day 60) was 27.5 ± 1.7 (4) days and the “Complete Response” value [4, 11] was 0. The “Partial Response” value [4, 11] was 0, the Survivors [4, 11] was 1 and the “Toxic Deaths” value [4, 11] was 0. The “Mean Score” value ([4]; HCT116, i.v. Day 1 (Taxol 36 mg/kg split dose, 1393 73 mg/kg single dose)) was 2.2 ± 0.5 and the tolerability ([4]; mouse, in vivo, iv, 73 mg/kg) was “well-tolerated”.
